The results in this text go back to patent US6433014B1, “Compounds consisting in particular of effectors of the central nervous system receptors sensitive excitatory amino acids, preparation and biological applications” (Centre National de la Recherche Scientifique (C.N.R.S.), priority 1997, dated 2002).

For one assay, the target named is T1, mGluR1a (Rattus norvegicus, UniProt P23385).
T1 construct: expressed in transfected cells; host or cells: HEK 293
The experiment in a line: accumulation of inositol phosphates (phospholipase C activation) in transfected HEK 293 cells expressing mGluR1a. Type of assay: cell-based. On the procedure: (§1) For this purpose, the activation of phospholipase C was measured (accumulation of inositol phosphates).
(§2) The HEK 293 cells are cultured in a Dulbecco's modified Eagle medium (DMEM, Gibco BRL) to which 10% of foetal calf serum has been added, and transfected by electroporation as previously described by Gomeza et al., Molecular Pharmacology, 1996, 50:923-930 (1996).
(§3) The electroporation is carried out in a total volume of 300 μl with 10 μg of supporting DNA, plasmid DNA containing mGluR1a (0.3 μg), mGluR2 (2 μg) or mGluR4a (5 μg) and 10^7 cells.
(§4) Determination of the accumulation of inositol phosphates (IP).
(§5) The determination of the accumulation of IP in transfected cells is carried out as described by Gomeza after labelling the cells for approximately 14 hours with [^3H]-myo-inositol (23.4 Ci/mol, NEN, France).
(§6) Stimulation is carried out for 30 minutes in a medium containing 10 mM LiCl in the presence of the drugs tested. The formation of the basic IP is determined after 30 minutes of incubation in the presence of 10 mM LiCl and pyruvate glutamate transaminase (1 U/ml) degrading the glutamate (Glu) and 2 mM of pyruvate in order to avoid the possible effects of Glu released by the cells. The results are expressed in the quantity of IP product with respect to the radioactivity present in the membranes.

In the next assay the target is T2, mGluR2 (Rattus norvegicus, UniProt P31421).
T2 construct: expressed in transfected cells; host or cells: HEK 293
T2 sequence (P31421 19-872): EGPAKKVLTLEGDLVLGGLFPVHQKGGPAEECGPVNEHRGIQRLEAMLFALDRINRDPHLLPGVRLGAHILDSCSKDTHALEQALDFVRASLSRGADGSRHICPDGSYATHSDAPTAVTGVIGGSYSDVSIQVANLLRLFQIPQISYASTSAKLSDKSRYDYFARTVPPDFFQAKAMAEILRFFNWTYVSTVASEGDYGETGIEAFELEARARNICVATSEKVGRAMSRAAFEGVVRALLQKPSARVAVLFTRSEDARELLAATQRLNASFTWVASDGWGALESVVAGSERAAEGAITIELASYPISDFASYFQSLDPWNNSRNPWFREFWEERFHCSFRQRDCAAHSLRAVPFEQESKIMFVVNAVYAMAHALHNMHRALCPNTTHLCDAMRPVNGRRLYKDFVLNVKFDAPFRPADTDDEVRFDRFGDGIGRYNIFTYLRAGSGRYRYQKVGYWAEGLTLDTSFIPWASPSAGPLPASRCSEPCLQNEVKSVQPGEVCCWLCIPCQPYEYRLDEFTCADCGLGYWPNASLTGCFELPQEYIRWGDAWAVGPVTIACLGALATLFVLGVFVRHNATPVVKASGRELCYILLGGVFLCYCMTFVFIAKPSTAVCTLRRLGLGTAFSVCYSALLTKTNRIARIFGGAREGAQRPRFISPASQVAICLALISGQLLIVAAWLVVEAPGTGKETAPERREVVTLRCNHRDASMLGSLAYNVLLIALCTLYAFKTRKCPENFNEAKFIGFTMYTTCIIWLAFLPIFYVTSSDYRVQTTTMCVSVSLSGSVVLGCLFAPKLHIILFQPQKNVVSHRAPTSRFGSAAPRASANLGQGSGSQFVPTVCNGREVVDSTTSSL
Nature of the assay: accumulation of inositol phosphates in transfected HEK 293 cells expressing mGluR2 co-expressed with chimeric G protein. Type of assay: cell-based. On the procedure:
as §1, §2, §3
In order to allow activation of the phospholipase C by mGluR2 and mGluR4a, which effect is easier to measure than the inhibition of the production of cAMP, these receptors are co-expressed with chimeric G, Gqo5 and Gqi9 proteins, as described by Gomeza. The pharmacological profiles of these 2 receptors determined according to this method, have already been described as identical to those characterized by measuring the inhibition of the formation of cAMP.
as §4, §5, §6

In the next assay the target is T3, mGluR4a (Rattus norvegicus, UniProt P31423).
T3 construct: expressed in transfected cells; host or cells: HEK 293
T3 sequence (P31423 33-912): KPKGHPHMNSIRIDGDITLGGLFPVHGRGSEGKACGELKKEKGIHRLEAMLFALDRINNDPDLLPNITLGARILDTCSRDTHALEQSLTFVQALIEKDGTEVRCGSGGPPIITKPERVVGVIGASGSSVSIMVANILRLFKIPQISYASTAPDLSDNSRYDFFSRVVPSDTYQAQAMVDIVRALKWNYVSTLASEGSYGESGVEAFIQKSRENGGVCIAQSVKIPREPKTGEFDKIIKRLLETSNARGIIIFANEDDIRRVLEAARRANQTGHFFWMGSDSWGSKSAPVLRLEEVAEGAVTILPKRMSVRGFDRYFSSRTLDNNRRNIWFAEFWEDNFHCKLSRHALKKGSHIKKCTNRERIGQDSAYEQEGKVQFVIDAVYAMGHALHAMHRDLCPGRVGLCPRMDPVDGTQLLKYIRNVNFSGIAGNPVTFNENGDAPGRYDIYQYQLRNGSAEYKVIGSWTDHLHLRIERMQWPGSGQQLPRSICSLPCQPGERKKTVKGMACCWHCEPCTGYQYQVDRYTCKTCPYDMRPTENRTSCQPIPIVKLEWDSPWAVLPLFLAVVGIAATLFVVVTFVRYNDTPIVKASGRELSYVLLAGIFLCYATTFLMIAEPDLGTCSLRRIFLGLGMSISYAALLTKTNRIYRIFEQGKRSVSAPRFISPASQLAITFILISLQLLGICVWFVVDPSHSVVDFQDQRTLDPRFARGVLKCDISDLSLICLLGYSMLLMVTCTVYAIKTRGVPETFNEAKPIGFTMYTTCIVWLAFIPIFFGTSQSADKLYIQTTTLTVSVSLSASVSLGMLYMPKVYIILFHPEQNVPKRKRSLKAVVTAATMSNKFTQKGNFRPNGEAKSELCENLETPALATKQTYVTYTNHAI
Nature of the assay: accumulation of inositol phosphates in transfected HEK 293 cells expressing mGluR4a co-expressed with chimeric G protein. It is filed as cell-based. On the procedure: as §1, §2, §3, §4, §5, §6

Assay [1] relates to ionotropic receptors (NMDA, AMPA and kainate receptors). Nature of the assay: patch clamp recording of granule cells of the cerebellum. Type of assay: cell-based, mice. The settings on record: ACPT 1 mM; NMDA or kainate 100 μM. On the procedure:
Culture and recording of the granule cells of the cerebellum
The granule cells of the cerebellum are cultured from 7 day-old baby mice as described by Van-Vliet, B. J., J. of Neurochemistry, 1989, .52, 1229-1239.
Recording is carried out using the technique known as a “patch clamp” in the full cell configuration and the molecules are applied using a rapid application technique.
Initially, tests were carried out in order to check whether the ACPT's were capable of activating or exercising an antagonist effect vis-à-vis the ionotropic receptors. These tests have shown that none of the ACPT enantiomers induces a current when they are placed in contact with the granule cells of the cerebellum at a concentration of 1 mM.
In the same batches, currents are on the contrary seen to be induced by NMDA (100 μM) or kainate (100 μM, which concentration allows activation of both the AMPA and kainate receptors), as envisaged given the activation of the NMDA and non-NMDA receptors.
(The patch-clamp technique gives a direct electrical read-out from membranes.)

T1 sequence (P23385 19-1199): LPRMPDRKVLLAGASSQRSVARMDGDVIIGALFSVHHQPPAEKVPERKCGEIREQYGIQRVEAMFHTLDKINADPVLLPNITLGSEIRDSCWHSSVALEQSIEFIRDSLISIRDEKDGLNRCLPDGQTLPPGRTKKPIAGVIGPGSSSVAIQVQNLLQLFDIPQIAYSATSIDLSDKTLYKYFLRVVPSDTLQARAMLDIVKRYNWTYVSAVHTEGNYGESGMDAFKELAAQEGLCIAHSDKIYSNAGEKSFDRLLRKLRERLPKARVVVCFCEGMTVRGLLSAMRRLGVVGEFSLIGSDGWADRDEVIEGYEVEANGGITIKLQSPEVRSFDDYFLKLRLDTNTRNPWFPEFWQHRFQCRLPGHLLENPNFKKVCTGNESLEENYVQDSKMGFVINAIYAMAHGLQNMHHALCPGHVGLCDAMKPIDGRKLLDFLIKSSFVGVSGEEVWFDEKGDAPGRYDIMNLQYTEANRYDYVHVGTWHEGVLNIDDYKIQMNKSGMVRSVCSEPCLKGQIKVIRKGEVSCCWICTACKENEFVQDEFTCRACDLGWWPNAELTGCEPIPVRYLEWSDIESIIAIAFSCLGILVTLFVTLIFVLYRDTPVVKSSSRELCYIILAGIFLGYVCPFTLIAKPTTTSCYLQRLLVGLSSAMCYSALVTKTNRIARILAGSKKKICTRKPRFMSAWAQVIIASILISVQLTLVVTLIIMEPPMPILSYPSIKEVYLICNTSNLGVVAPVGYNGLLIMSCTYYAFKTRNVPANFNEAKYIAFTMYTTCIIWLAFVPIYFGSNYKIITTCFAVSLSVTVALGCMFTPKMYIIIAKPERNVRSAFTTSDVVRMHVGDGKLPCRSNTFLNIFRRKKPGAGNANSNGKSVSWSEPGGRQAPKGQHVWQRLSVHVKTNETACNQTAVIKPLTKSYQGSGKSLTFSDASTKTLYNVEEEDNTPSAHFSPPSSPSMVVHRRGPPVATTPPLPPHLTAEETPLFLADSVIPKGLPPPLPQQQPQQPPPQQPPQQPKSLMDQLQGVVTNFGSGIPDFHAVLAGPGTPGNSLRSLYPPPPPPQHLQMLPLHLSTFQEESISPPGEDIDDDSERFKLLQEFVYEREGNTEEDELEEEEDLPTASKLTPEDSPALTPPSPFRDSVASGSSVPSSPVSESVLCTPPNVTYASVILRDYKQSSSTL

As usually defined, the Kb is the equilibrium dissociation constant of an antagonist, usually derived from a functional assay. One may read the EC50 as the concentration giving half of the maximal effect. As for `NC1(C(=O)O)CC(C(=O)O)C(C(=O)O)C1` (racemic) [(=)-ACPT-III, 1-amino-cyclopentane-1,3,4 tricarboxylic acid], at mGluR1a, the “inhibition of the formation of IP induced by Glu in cells expressing mGluR1a, in words” value is reported as “inhibit the formation of the IP's induced by the Glu”. Also, the Kb on mGluR1a (HEK 293 cells, IP accumulation induced by Glu, Shild representation, read-out: mGluR1a KB (antagonist effect)) is over 300 µM; at mGluR2 (HEK 293 cells, IP accumulation induced by Glu, Shild representation, read-out: mGluR2 KB (antagonist effect)), over 300 µM; on mGluR4a (IP accumulation induced by Glu, Shild representation, read-out: mGluR4a KB (antagonist effect)) it was over 3000 µM. In addition, the EC50 at mGluR1a (HEK 293 cells, IP accumulation, read-out: mGluR1a EC50 (agonist effect)) was over 3000 µM; on mGluR2 (HEK 293 cells, IP accumulation, read-out: mGluR2 EC50 (agonist effect)) it was over 3000 µM; on mGluR4a (IP accumulation, read-out: mGluR4a EC50 (agonist effect)) it was 40 ± 8 µM. For the same compound, the “inhibition of the responses induced by Glu in cells expressing mGluR2, in words” value against mGluR2 is “inhibit the responses induced by Glu”. Moreover, the “inhibition of responses induced by NMDA or kainate, in words” value in assay [1] is “No significant inhibition”.
